Data reported in patent US20260069671A1, “MICELLE COMPRISING AMPHIPHILIC PEPTIDE, AND ANTIGEN CARRIER NANOPARTICLE USING SAME” (RTAB CO., LTD., priority 2022, published 2026).

Legend:
[1] = system: mice; assay: Comparison of antibodies induced by nanoparticles and by the KLH conjugate method (FIG. 7); format: in vivo, mouse; conditions: compared with keyhole limpet hemocyanin method
Procedure: In addition, when the antibodies identified by Western blot were pre-reacted with the incomplete water-soluble antigen (lower panel of FIG. 7), all bands disappeared, confirming that all antibodies that were produced were specifically generated against the incomplete water-soluble antigen. After completion of the experiment, the spleens of the used animals were removed, splenocytes were isolated, and the analysis of B cells and T cells was performed through flow cytometry.

[2] = system: BALB/c mice; assay: ELISA of hapten peptide-specific IgG/IgM in blood of immunized mice; format: in vivo, mouse; conditions: FIG. 6
Procedure: (§1) Female BALB/C mice were purchased from Nara Biotech, Seoul, Korea, were 6 weeks old, and were bred under pathogen-free conditions. This study was conducted in accordance with the strict guidelines for the care and use of laboratory animals of the National Institutes of Health. The protocol was approved by the Animal Care Committee of Hanyang University Animal Hospital. For immunization, nanoparticles were emulsified with aluminum hydroxide (20 mg/100 μL, Sigma-Aldrich, St Louis, MO, USA). The mice were injected with 150 μg carrier dissolved in 150 μL phosphate buffered saline (PBS). The mice were injected with 50 μg hapten dissolved in 150 μL PBS. The mice were injected with 3:1 (w/w) nanoparticles (150 μg carrier and 50 μg hapten) combined with 150 μL PBS and 40 mg aluminum hydroxide. The mice were injected with 1:3 (w/w) nanoparticles (16.67 μg carrier and 50 μg hapten) combined with 150 μL PBS and 40 mg aluminum hydroxide. All groups were injected by intraperitoneal route and again on day 21. Blood was collected through the jugular vein twice a week and centrifuged at 2,000 g for 20 minutes. Serum was collected from centrifuged blood and frozen at −20° C. until being analyzed by ELSIA. The mice were sacrificed on day 35. Whole blood was collected and centrifuged at 2,000 g for 20 minutes. Serum was collected from centrifuged blood and frozen at −20° C. until being analyzed by dot blot. […]

[3] = system: hapten and CD8 specific T cells; assay: Live cell flow cytometry of hapten-specific cytotoxic T cells in splenocytes of immunized mice; format: in vivo, mouse
Procedure: as §1, with “All groups were injected by intraperitoneal route and again on day 21. Blood was collected through the jugular vein twice a week and centrifuged at 2,000 g for 20 minutes.” left out, “The mice were sacrificed on day 35. Whole blood was collected and centrifuged at 2,000 g for 20 minutes.” left out
(§2) In order to identify nanoparticle (or hapten peptide)-specific lymphocyte populations, live cell flow cytometry was performed. […] After rinsing, the cells were filtered through a 40 μm cell strainer and counted. […]

[4] = system: CD19 positive B cells reacting with DDOST protein labeled with Alexa 647; assay: Live cell flow cytometry of hapten-specific B cells in splenocytes of immunized mice; format: in vivo, mouse; conditions: FIG. 11
Procedure: as §1, with “All groups were injected by intraperitoneal route and again on day 21. Blood was collected through the jugular vein twice a week and centrifuged at 2,000 g for 20 minutes.” left out, “The mice were sacrificed on day 35. Whole blood was collected and centrifuged at 2,000 g for 20 minutes.” left out
as §2

[5] = system: BALB/c mice; assay: Antibody detection by dot blot in serum of immunized mice; format: in vivo, mouse; conditions: serum of day 35, serially diluted recombinant protein, FIG. 10
Procedure: as §1, with “The mice were injected with 1:3 (w/w) nanoparticles (16.67 μg carrier and 50 μg hapten) combined with 150 μL PBS and 40 mg aluminum hydroxide. All groups were injected by intraperitoneal route and again on day 21. Blood was collected through the jugular vein twice a week and centrifuged at 2,000 g for 20 minutes.” left out, “The mice were sacrificed on day 35. Whole blood was collected and centrifuged at 2,000 g for 20 minutes.” left out
For determination of nanoparticle (or hapten peptide)-specific antibodies, serial dilutions of the recombinant protein were seeded on PVDF membranes at a concentration of 1.2 μg/μL to 12 ng/μL. […] Afterwards, the enhanced chemiluminescence solution (ECL) was treated with a membrane and directly analyzed with chemiscope 3400 (CLINX, China). […]

[6] = Nanoparticle size measurement with Zetasizer Nano ZS; format: physicochemical; conditions: diluted in ultrapure water, room temperature, triplicate mean +/- standard deviation
Procedure: Recombinant amphiphilic peptides and hapten peptides were produced and provided by Anygen in Gwangju, Korea. In order to prepare nanoparticles (particulate soluble hapten) using amphiphilic peptides, amphiphilic peptides (peptides of SEQ ID NOs: 1 to 4, respectively) were dissolved in distilled water at a concentration of 4 mg/mL. Then, hapten peptides (peptides of SEQ ID NOs: 5 to 11, respectively) were dissolved in distilled water at a concentration of 0.5 mg/mL. Afterwards, a fixed amount of hapten (50 μg) was mixed with two different amounts of amphiphilic peptide at a ratio of 3:1 and 1:3 (w/w) and incubated for 30 minutes at room temperature (25° C.).
In order to characterize the sizes of amphiphilic peptides and nanoparticles, the diameters of micelles and nanoparticles formed by amphiphilic peptides (carriers) were measured with a Zetasizer Nano ZS system (Malvern Instruments, Malvern, UK). After digestion, the micelle stock solution was added to the cuvette. After 30-minute incubation, nanoparticles were diluted to a final volume of 1 mL. The average size was then analyzed with Dispersion Technology software 4.3. Nanoparticles were diluted using ultrapure water (refractive index 1.33, viscosity 0.89) and used for analysis at room temperature. Observations were presented as triplicate means +/−standard deviation.

## keyhole limpet hemocyanin
[1]
  antibody production (FIG. 7, top panel): antibodies were produced

## RRRVVVVVV (micelle self-assembly) [Carrier, amphiphilic peptide of three arginines and six valines forming micelles by self-assembly]
[2]
  expression of hapten peptide-specific IgG and IgM antibodies in mouse blood: no significant increase
[3]; FIG. 12
  change in proportion of CD8 T cells reacting to the target protein: did not show significant changes
[3]; splenocytes day 35, FIG. 12
  hapten and CD8 specific T cells, lower gating group: 0.78%
[4]
  change in ratio of B cells responding to the target protein: no significant change
[4]; splenocytes day 35, Alexa 647 positive channel
  hapten-specific B cells, lower gating group: 15.1%
[5]
  hapten peptide-specific IgG dots (dot blot): no concentrated dots
[6]
  Z-ave: 193.8 ± 97.3 nm·days
